# Biological target: T1, human PAD4 (Homo sapiens, UniProt Q9UM07)
# T1 construct: human PAD4 (NM_012387), A2P663, was PCR amplified; His-SUMO (N, cleaved yes); made in house; host or cells: E. coli BL21(DE3)
# Assay: In vitro PAD4 BAEE biochemical assay
# Settings: human PAD4, BAEE substrate; 5 nM PAD4, 2 mM calcium chloride, 3 mM BAEE; geometric mean of multiple experiments
# Procedure: The PCR product was ligated into linearized pET-SUMO vector (Invitrogen, Carlsbad, CA), which is part of the Champion™ pET SUMO Protein Expression System. After sequence verification for the correct orientation, the pET-SUMO-hPAD4 expression plasmid was transformed into BL21(DE3) cells.
# E. Coli BL21(DE3) cells were inoculated in LB medium with kanamycin at 37° C. until A600 nm reached about 0.5. Protein expression was induced by addition of 0.5 mM IPTG (final) and continued overnight at 16° C. at 220 rpm.
# Cells were harvested by centrifugation at 5000 rpm for 10 minutes at 4° C. The pellet was resuspended in 300 ml lysis buffer (20 mM Tris-HCl, pH 8.0, 1 mM EDTA, 500 mM NaCl, 1 mM (tris(2-carboxyethyl)phosphine) (TCEP), 10% glycerol, and 1% Triton X100 and EDTA free protease inhibitor) and lysed by 3× passage through a microfluidizer (Microfluidics, Newton, MA) at 18,000 psi. The cell lysate was clarified by centrifugation at 30,000 rpm for 60 minutes at 4° C. […] Bound protein was eluted with a 0-100% linear gradient of 100 mL Ni-B buffer (Ni A buffer+0.5 M Imidazole).
# The protein was then reloaded onto a Ni—HP column for a reverse purification step and recovered in flow through fraction. The protein with His-Sumo tag removed was then polished using a 16/60 Superdex-200 gel filtration column with gel filtration buffer (20 mM Tris pH 8.0, NaCl 400 mM and 1 mM TCEP). The fractions containing the protein were pulled and frozen at −80° C.
# The enzymatic activity of human PAD4 was monitored in a biochemical assay in the presence or absence of compounds using the small peptidyl arginine mimic BAEE (Na-Benzoyl-L-arginine ethyl ester hydrochloride) as substrate. PAD4 activity led to deamination of BAEE and release of ammonia. Levels of ammonia were monitored by using an amine coupling reaction and were indicative of PAD4 enzymatic activity.
# One hundred nanoliters of test compounds dissolved in DMSO at various concentrations were dispensed into a 384-well black OptiPlate using a Labcyte Echo instrument. Ten microliters of a solution of recombinant PAD4 and calcium chloride diluted in PAD4 assay buffer (50 mM MOPS [3-(N-morpholino) propanesulfonic acid], pH 7.6; 50 mM sodium chloride; 0.05% Tween-20; 2 mM dithiothreitol) was added to the compound-containing plate and was incubated for 30 minutes at 25° C. Ten microliters of a solution of BAEE (Sigma-Aldrich #B4500) diluted in PAD4 assay buffer was then added to start the reaction. Final concentrations were 5 nM PAD4, 2 mM calcium chloride, and 3 mM BAEE. The reaction mixture was incubated at 25° C. for 2 hours and was stopped with the addition of 10 microliters of a solution of 75 mM EDTA (Ethylenediaminetetraacetic acid) in PAD4 assay buffer. Thirty microliters of detection solution (5 mM o-phthalaldehyde, 50 mM MOPS [3-(N-morpholino) propanesulfonic acid], pH 7.6; 50 mM sodium chloride; 0.05% Tween-20; 5 mM dithiothreitol) was then added and the reaction was incubated for 1 hour at 25° C.
# T1 sequence (Q9UM07 2-663): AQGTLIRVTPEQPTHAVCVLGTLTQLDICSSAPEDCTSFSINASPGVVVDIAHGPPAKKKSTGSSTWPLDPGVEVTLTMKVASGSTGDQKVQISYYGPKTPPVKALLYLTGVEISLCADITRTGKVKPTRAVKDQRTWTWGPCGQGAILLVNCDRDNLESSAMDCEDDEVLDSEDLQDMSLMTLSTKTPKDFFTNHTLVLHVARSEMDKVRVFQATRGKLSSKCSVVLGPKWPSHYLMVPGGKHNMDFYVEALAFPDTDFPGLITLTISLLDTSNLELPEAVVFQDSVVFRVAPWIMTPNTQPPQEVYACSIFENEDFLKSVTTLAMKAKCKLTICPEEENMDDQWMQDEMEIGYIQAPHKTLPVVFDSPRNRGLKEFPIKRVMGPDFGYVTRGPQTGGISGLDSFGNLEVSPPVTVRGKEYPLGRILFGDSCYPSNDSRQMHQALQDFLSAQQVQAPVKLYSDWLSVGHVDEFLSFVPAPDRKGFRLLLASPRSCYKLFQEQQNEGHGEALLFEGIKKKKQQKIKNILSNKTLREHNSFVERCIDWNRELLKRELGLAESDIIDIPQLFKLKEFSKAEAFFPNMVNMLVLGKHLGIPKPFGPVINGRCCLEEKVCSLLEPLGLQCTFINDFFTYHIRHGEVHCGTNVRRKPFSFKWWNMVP
row,Compound,IC50 [nM]
1,"COc1cc(C(=O)N2[C@H]3CC[C@@H]2[C@H](N)C3)cc2nc(-c3cc4ccc([C@@H](C)NC(=O)c5ccccc5F)nc4n3CC3CC3)c(C)n12 [Example 15, ~{N}-[(1~{R})-1-[2-[7-[(1~{R}, 2~{R},4~{S})-2-amino-7-azabicyclo [2.2.1]heptane-7-carbonyl]-5-methoxy-3-methylimidazo [1,2-a]pyridin-2-yl]-1-(cyclopropylmethyl)pyrrolo[2,3-b]pyridin-6-yl]ethyl]-2-fluorobenzamide]",297
2,"COc1cc(C(=O)N2[C@H]3CC[C@@H]2[C@H](N)C3)cc2nc(-c3cc4ccc([C@@H](C)NC(=O)c5c(F)cccc5F)nc4n3CC3CC3)c(C)n12 [Example 16, ~{N}-[(1~{R})-1-[2-[7-[(1~{R},2~{R},4~{S})-2-amino-7-azabicyclo [2.2.1]heptane-7-carbonyl]-5-methoxy-3-methylimidazo [1,2-a]pyridin-2-yl]-1-(cyclopropylmethyl)pyrrolo[2,3-b]pyridin-6-yl]ethyl]-2,6-difluorobenzamide]",114
3,COc1ccccc1C(=O)N[C@H](C)c1ccc2cc(-c3nc4cc(C(=O)N5[C@H]6CC[C@@H]5[C@H](N)C6)cc(OC)n4c3C)n(CC3CC3)c2n1 [Example 17],348
4,COc1cc(C(=O)N2[C@H]3CC[C@@H]2[C@H](N)[C@H](OCC(F)F)C3)cc2nc(-c3cc4ccc([C@@H](C)NC(=O)C56CC(F)(C5)C6)nc4n3CC3CC3)c(C)n12 [Example 18],578
5,"COc1cc(C(=O)N2C[C@@H]3CCN[C@@H]3C2)cc2nc(-c3cc4ccc([C@@H](C)NC(=O)C56CC(F)(C5)C6)nc4n3CC3CC3)c(C)n12 [Example 20, ~{N}-[(1~{R})-1-[2-[7-[(3~{a}~{S}, 6~{a}~{S})-2,3,3~{a}, 4,6,6~{a}-hexahydro-1~{H}-pyrrolo[3,4-b]pyrrole-5-carbonyl]-5-methoxy-3-methylimidazo[1,2-a]pyridin-2-yl]-1-(cyclopropylmethyl)pyrrolo[2,3-b]pyridin-6-yl]ethyl]-3-fluorobicyclo[1.1.1] pentane-1-carboxamide]",3860
6,COc1cc(C(=O)N2C[C@H]3CCN[C@H]3C2)cc2nc(-c3cc4ccc([C@@H](C)NC(=O)C56CC(F)(C5)C6)nc4n3CC3CC3)c(C)n12 [Example 21],2060
7,"COc1cc(C(=O)N2[C@H]3CC[C@@H]2[C@H](N)[C@H](OC)C3)cc2nc(-c3cc4ccc([C@@H](C)NC(=O)C56CC(F)(C5)C6)nc4n3CC3CC3)c(C)n12 [Example 22, ~{N}-[(1~{R})-1-[2-[7-[(1~{R},2~{S},3~{R}, 5~{S})-2-amino-3-methoxy-8-azabicyclo [3.2.1]octane-8-carbonyl]-5-methoxy-3-methylimidazo [1,2-a]pyridin-2-yl]-1-(cyclopropylmethyl)pyrrolo[2,3-b]pyridin-6-yl]ethyl]-3-fluorobicyclo[1.1.1] pentane-1-carboxamide]",483
8,"COc1cc(C(=O)N2C[C@H]3C[C@@]3(N)C2)cc2nc(-c3cc4ccc([C@@H](C)NC(=O)C56CC(F)(C5)C6)nc4n3CC3CC3)c(C)n12 [Example 24, ~{N}-[(1~{R})-1-[2-[7-[(1~{S},5~{R})-1-amino-3-azabicyclo [3.1.0]hexane-3-carbonyl]-5-methoxy-3-methylimidazo [1,2-a]pyridin-2-yl]-1-(cyclopropylmethyl)pyrrolo[2,3-b]pyridin-6-yl]ethyl]-3-fluorobicyclo[1.1.1] pentane-1-carboxamide]",9010
9,"COc1cc(C(=O)N2C[C@@H]3C[C@]3(N)C2)cc2nc(-c3cc4ccc([C@@H](C)NC(=O)C56CC(F)(C5)C6)nc4n3CC3CC3)c(C)n12 [Example 25, ~{N}-[(1~{R})-1-[2-[7-[(1~{R},5~{S})-1-amino-3-azabicyclo [3.1.0]hexane-3-carbonyl]-5-methoxy-3-methylimidazo [1,2-a]pyridin-2-yl]-1-(cyclopropylmethyl)pyrrolo[2,3-b]pyridin-6-yl]ethyl]-3-fluorobicyclo[1.1.1] pentane-1-carboxamide]",4450
10,"COc1nn(C)cc1C(=O)N[C@H](C)c1ccc2cc(-c3nc4cc(C(=O)N5[C@H]6CC[C@@H]5[C@H](N)C6)cc(OC)n4c3C)n(CC3CC3)c2n1 [Example 26, ~{N}-[(1~{R})-1-[2-[7-[(1~{R},2~{R},4~{S})-2-amino-7-azabicyclo [2.2.1]heptane-7-carbonyl]-5-methoxy-3-methylimidazo [1,2-a]pyridin-2-yl]-1-(cyclopropylmethyl)pyrrolo[2,3-b]pyridin-6-yl]ethyl]-3-methoxy-1-methylpyrazole-4-carboxamide]",151
11,"COc1cc(C(=O)N2CC[C@H]3CCCN[C@H]3C2)cc2nc(-c3cc4ccc([C@@H](C)NC(=O)C56CC(F)(C5)C6)nc4n3CC3CC3)c(C)n12 [Example 31, ~{N}-[(1~{R})-1-[2-[7-[(4~{a}~{R}, 8~{a}~{R})-2,3,4,4~{a},5,6,8,8~{a}-octahydro-1~{H}-1,7-naphthyridine-7-carbonyl]-5-methoxy-3-methylimidazo [1,2-a]pyridin-2-yl]-1-(cyclopropylmethyl)pyrrolo[2,3-b]pyridin-6-yl]ethyl]-3-fluorobicyclo[1.1.1] pentane-1-carboxamide]",487

# Now those with a lower IC50, led by results:
row,IC50 [nM],Compound
1,61.3,"COCc1nn(C)cc1C(=O)N[C@H](C)c1ccc2cc(-c3nc4cc(C(=O)N5[C@H]6CC[C@@H]5[C@H](N)C6)cc(OC)n4c3C)n(CC3CC3)c2n1 [Example 23, ~{N}-[(1~{R})-1-[2-[7-[(1~{R},2~{R},4~{S})-2-amino-7-azabicyclo [2.2.1]heptane-7-carbonyl]-5-methoxy-3-methylimidazo [1,2-a]pyridin-2-yl]-1-(cyclopropylmethyl)pyrrolo[2,3-b]pyridin-6-yl]ethyl]-3-(methoxymethyl)-1-methylpyrazole-4-carboxamide]"
2,108,"COCC1(C(=O)N[C@H](C)c2ccc3cc(-c4nc5cc(C(=O)N6[C@H]7CC[C@@H]6[C@H](N)C7)cc(OC)n5c4C)n(CC4CC4)c3n2)CCC1 [Example 29, ~{N}-[(1~{R})-1-[2-[7-[(1~{R},2~{R},4~{S})-2-amino-7-azabicyclo [2.2.1]heptane-7-carbonyl]-5-methoxy-3-methylimidazo[1,2-a]pyridin-2-yl]-1-(cyclopropylmethyl)pyrrolo[2,3-b]pyridin-6-yl]ethyl]-1-(methoxymethyl) cyclobutane-1-carboxamide]"
3,82.4,"COc1cc(C(=O)N2[C@H]3CC[C@@H]2[C@H](N)C3)cc2nc(-c3cc4ccc([C@@H](C)NC(=O)c5cccn(C)c5=O)nc4n3CC3CC3)c(C)n12 [Example 30, ~{N}-[(1~{R})-1-[2-[7-[(1~{R}, 2~{R},4~{S})-2-amino-7-azabicyclo [2.2.1]heptane-7-carbonyl]-5-methoxy-3-methylimidazo [1,2-a]pyridin-2-yl]-1-(cyclopropylmethyl)pyrrolo[2,3-b]pyridin-6-yl]ethyl]-1-methyl-2-oxopyridine-3-carboxamide]"
4,83,"COc1cc(C(=O)N2[C@H]3CC[C@@H]2[C@H](N)C3)cc2nc(-c3cc4ccc([C@@H](C)NC(=O)CC5(OC)CCC5)nc4n3CC3CC3)c(C)n12 [Example 32, ~{N}-[(1~{R})-1-[2-[7-[(1~{R},2~{R},4~{S})-2-amino-7-azabicyclo [2.2.1]heptane-7-carbonyl]-5-methoxy-3-methylimidazo[1,2-a]pyridin-2-yl]-1-(cyclopropylmethyl)pyrrolo[2,3-b]pyridin-6-yl]ethyl]-2-(1-methoxycyclobutyl) acetamide]"
5,69.8,"COc1cc(C(=O)N2[C@H]3CC[C@@H]2[C@H](N)C3)cc2nc(-c3cc4ccc([C@@H](C)NC(=O)CC5(OC)CC5)nc4n3CC3CC3)c(C)n12 [Example 33, ~{N}-[(1~{R})-1-[2-[7-[(1~{R},2~{R}, 4~{S})-2-amino-7-azabicyclo[2.2.1]heptane-7-carbonyl]-5-methoxy-3-methylimidazo [1,2-a]pyridin-2-yl]-1-(cyclopropylmethyl)pyrrolo[2,3-b]pyridin-6-yl]ethyl]-2-(1-methoxycyclopropyl) acetamide]"

# Reference: patent publication US12240862B2, “Inhibitors of peptidylarginine deiminases” (Gilead Sciences, Inc., priority 2020, dated 2025)
